What all share (experiment): growth of human tumour cells (NCI), 48 h
In experiment [1] the test system is SK-MEL-2.
The test system of experiment [2] is KM12.
Experiment [3] concerns U-251.
Experiment [4] relates to OVCAR-4.
Experiment [5] deals with SK-OV-3.
For experiment [6], the system named is ACHN.
Experiment [7] has as its system SNB-19.
For experiment [8], the system named is NCI/ADR-RES.
Experiment [9] deals with LOX IMVI.
The test system of experiment [10] is UO-31.
Experiment [11] concerns HOP-92.
Experiment [12] relates to HCT-15.
Experiment [13] relates to SK-MEL-28.
Experiment [14] concerns IGROV-1.
In experiment [15] the test system is SR.
In experiment [16] the test system is RPMI-8226.
Experiment [17] concerns OVCAR-8.
In experiment [18] the test system is SN12C.
Experiment [19] deals with UACC-62.

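Method: 48-hour compound exposure of cells in 96-well plates, five concentrations, linear interpolation of endpoints. The concentration for 50% growth inhibition is given as GI50.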 Active and inactive are the calls of the source. Cut-off read from the data, not from the text of the source: active = GI50 up to about 1.1 µM and inactive = higher.

In the case of `CCOc1cc(NC(C)=O)ccc1C(=O)NN1C(=O)C(Oc2ccccc2)C1c1ccc(O)c(OC)c1` (configuration not stated), the GI50 in [1] was 26.9 µM (inactive); in experiment [2] it was 39.1 µM (inactive); in experiment [3], 48.9 µM (inactive); in experiment [4], 31.3 µM (inactive); in experiment [5], > 100 µM (inactive); in [6] it was 93.5 µM (inactive). Besides, the GI50 was > 100 µM (inactive) in [7]; 37.4 µM (inactive) in experiment [8]; 29.8 µM (inactive) in experiment [9]; 35 µM (inactive) in experiment [10]; 6.04 µM (inactive) in experiment [11]; 32.8 µM in experiment [12]. For the same molecule, the GI50 is 79.4 µM (inactive) in [13]; 34 µM (inactive) in [14]; 25.8 µM (inactive) in experiment [15]; 25.5 µM (inactive) in experiment [16]; 22.1 µM (inactive) in experiment [17]; 28 µM (inactive) in experiment [18].

As to `N#Cc1c(N)c(C#N)c2c(c1-c1ccc(Cl)cc1)COc1ccccc1-2`, the GI50 in [1] was 22 µM (inactive); in [2] it was 28.6 µM (inactive); in experiment [3], 14.7 µM (inactive); in experiment [4], 11.1 µM (inactive); in experiment [5] it was 18.4 µM (inactive); in experiment [6], 13.7 µM (inactive). In addition, the GI50 is 14.5 µM (inactive) in [7]; 20.9 µM (inactive) in experiment [8]; 29.7 µM (inactive) in experiment [9]; 4.04 µM (inactive) in [10]; 15.3 µM (inactive) in experiment [11]; 31.8 µM in experiment [12]. Moreover, the GI50 in [13] was 16.5 µM (inactive); in [14], 20.4 µM (inactive); in [15], 11.4 µM (inactive); in experiment [16], 3.27 µM (inactive); in [18], 12.4 µM (inactive); in experiment [19] it was 30.1 µM (inactive).

Consider `CCOC(=O)c1c(-c2ccc(Cl)cc2)c(C#N)c(=S)n(C2OC(COC(C)=O)C(OC(C)=O)C(OC(C)=O)C2OC(C)=O)c1C` (configuration not stated), for which the GI50 in [1] was 1.77 µM (inactive); in [2], > 100 µM (inactive); in experiment [3] it was > 100 µM (inactive); in [4], 90.2 µM (inactive); in [5], > 100 µM (inactive); in [6], > 100 µM (inactive). For the same molecule, the GI50 in experiment [7] is > 100 µM (inactive); in [8], > 100 µM (inactive); in experiment [9], > 100 µM (inactive); in experiment [10], 0.565 µM (active); in [11], 0.125 µM (active); in [12], over 100 µM. The GI50 in experiment [13], in experiment [14], in experiment [15], in experiment [17], in [18] and in experiment [19] was > 100 µM (inactive) each time.

Regarding `N#CC(NNC(=O)c1c(Cl)c(Cl)c(Cl)c(Cl)c1-c1nc2cc(C(=O)c3ccccc3)ccc2[nH]1)c1cccc(Oc2ccccc2)c1` (configuration not stated), the GI50 in [1] is 20.5 µM (inactive); in experiment [2], 36.6 µM (inactive); in [3], 23.4 µM (inactive); in experiment [4], 18.6 µM (inactive); in [5], 33.8 µM (inactive); in experiment [6], 25.6 µM (inactive). Moreover, the GI50 in [7] is 26.6 µM (inactive); in [8] it was 19 µM (inactive); in experiment [9], 37.8 µM (inactive); in [10], 30.8 µM (inactive); in experiment [11], 17.5 µM (inactive); in experiment [12] it was 18.4 µM. For the same molecule, the GI50 is 24.3 µM (inactive) in experiment [13]; 26.7 µM (inactive) in experiment [14]; 20.6 µM (inactive) in experiment [15]; 34.8 µM (inactive) in experiment [16]; 41.6 µM (inactive) in experiment [17]; 23.9 µM (inactive) in experiment [18].

For the origin of these results see ChEMBL document CHEMBL1201862, “PubChem BioAssay data set” (2004).
